Measured values as given in patent US8557829B2, “Use of allopurinol for the treatment of palmar plantar erythrodysesthesia” (Nobera Pharma, S.L., priority 2006, dated 2013).

How the values were obtained:
[1] = test system: Patients suffering from colon cancer or breast cancer; assay: Example 3: appearance of PPE under standard chemotherapy; format: in vivo, human
Procedure: (§1) Patients suffering from colon cancer or breast cancer were treated from January 2005 up to March 2007 with the following standard chemotherapy: • AIO protocol: high dose infusion 5FU24H+leucovorin • FOLFOX 4 protocol: day 1: oxaliplatin, 85 mg/m2, and leucovorin, 200 mg/m2, concurrently i.v., then 5-FU, 400 mg/m2 i.v. bolus followed by 600 mg/m2 continuous i.v.; day 2: leucovorin, 200 mg/m2 i.v., then 5-FU, 400 mg/m2 i.v. bolus, followed by 600 mg/m2 continuous i.v.; repeated every 2 weeks. • Oral capecitabine.
Palmar plantar erythrodysesthesia (PPE) appeared in 30% of the patients treated with 5-FU and in 66% of those treated with capecitabine.

cancer patients = conditions: colon / colorectal cancer, versus fluorouracil+leucovorin; cited from earlier work
[2] = cited from earlier work
[3] = target: T1, deoxythymidine phosphorylase (thymidine phosphorylase, TP) (Homo sapiens, UniProt P19971); conditions: Gallo et al. J Biological Chemistry 1968; cited from earlier work
T1 sequence (P19971 11-482): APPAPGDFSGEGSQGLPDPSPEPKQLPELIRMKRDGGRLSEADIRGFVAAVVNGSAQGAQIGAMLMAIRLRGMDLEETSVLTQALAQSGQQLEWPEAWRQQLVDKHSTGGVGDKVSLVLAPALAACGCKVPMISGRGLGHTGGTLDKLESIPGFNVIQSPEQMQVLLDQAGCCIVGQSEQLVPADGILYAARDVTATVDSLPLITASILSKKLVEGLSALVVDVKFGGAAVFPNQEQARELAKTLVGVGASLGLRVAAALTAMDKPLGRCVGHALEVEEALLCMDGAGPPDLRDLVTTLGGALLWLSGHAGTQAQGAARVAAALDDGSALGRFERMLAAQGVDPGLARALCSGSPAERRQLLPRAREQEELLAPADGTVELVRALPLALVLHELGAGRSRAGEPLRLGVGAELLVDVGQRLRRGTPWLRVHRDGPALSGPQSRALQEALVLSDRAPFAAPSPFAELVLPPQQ

[4] = test system: Patients with colorectal carcinoma; assay: Example 2: treatment of palmar plantar erythrodysesthesia with the allopurinol cream; format: in vivo, human
Procedure: Patients with colorectal carcinoma were administered chemotherapy (adjuvant or palliative) following the usual protocols. As soon as the first symptoms of palmar planar erythrodysesthesia appeared after starting chemotherapy, the patients were administered the cream prepared in example 1.
The characteristics of the patients treated with the cream and the chemotherapeutic regimen that they were administered were as follow:
Patients with advanced or metastatic colorectal cancer: 8
Patients with resected stage III colon cancer: 2
• 5FU+LV bolus (Mayo protocol): 1 patient • 5FU+LV infusional (AIO protocol): 7 patients • Capecitabine monotherapy: 2 patients
The cream was applied 5 times per day, to the palms and soles, as long as the chemotherapy was applied. The frequency was reduced in between cycles and increased shortly before and during chemotherapy administration.

[5] = test system: Patients suffering from colon cancer or breast cancer; assay: Example 3: response of PPE to allopurinol cream treatment; format: in vivo, human
Procedure: as §1
The cream comprising allopurinol as prepared in example 1 was topically applied by the patients 4-5 times a day to the hands and feet. In case of no response to this treatment and persistence of PPE symptoms, the dosage of chemotherapy was reduced and some cases interrupted.

uridine phosphorylase = uridine phosphorylase (Homo sapiens, UniProt Q16831); conditions: Gallo et al. J Biological Chemistry 1968; cited from earlier work
[6] = standard chemotherapy, before allopurinol treatment
[7] = 2 PPE patients on FOLFOX-4 chemotherapy
[8] = 3% cream 4-5 times a day to hands and feet
[9] = 5 PPE patients on AIO chemotherapy
[10] = 8 PPE patients on Capecitabine chemotherapy
[11] = all 15 PPE patients, 3% cream 4-5 times a day
[12] = all 15 PPE patients, 3% cream 4-5 times a day, listed as allopiirinol

Chain of uridine phosphorylase (Q16831 whole entry): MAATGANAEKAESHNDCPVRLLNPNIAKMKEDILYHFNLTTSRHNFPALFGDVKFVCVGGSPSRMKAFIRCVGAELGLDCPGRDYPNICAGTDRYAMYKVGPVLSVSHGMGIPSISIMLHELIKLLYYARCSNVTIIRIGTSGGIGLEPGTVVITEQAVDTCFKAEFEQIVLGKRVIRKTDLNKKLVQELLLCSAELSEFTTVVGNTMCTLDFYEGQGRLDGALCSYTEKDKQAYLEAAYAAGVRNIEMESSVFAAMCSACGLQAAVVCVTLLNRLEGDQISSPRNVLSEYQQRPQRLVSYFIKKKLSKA

SMILES: O=c1[nH]cc(F)c(=O)[nH]1 [5-FU, Fluorouracil]
- PPE symptoms, % of patients [1, 6]: 30%

SMILES: CCCCCOC(=O)Nc1nc(=O)n([C@@H]2O[C@H](C)[C@@H](O)[C@H]2O)cc1F [Capecitabine]
- Cumulative dosis with capecitabine until apprearauce of PPE, Median ([1]; patients who developed PPE): 81.000 mg
- PPE symptoms, % of patients [1, 6]: 66%
- PPE symptoms, n (of patients treated) [1, 6]: 8(12)
- PPE symptoms, % of patients ([1]; standard chemotherapy, before allopurinol treatment, listed as capecitabine): 66%
- incidence of hand-foot syndrome (PPE), all grades (cancer patients): 49-60%
- incidence of hand-foot syndrome (PPE), severe grades (cancer patients): 17%

SMILES: Oc1ncnc2[nH]ncc12 [allopurinol, 1,5-dihydro-4H-pyrazolo[3,4-d]pyrimidin-4-one]
- solubility in chloroform and in ether [2]: practically insoluble
- solubility in dilute solutions of alkali hydroxides [2]: dissolves
- solubility in water and alcohol [2]: very slightly soluble
- inhibition of thymidine phosphorylase (TP) [3]: inhibits TP
- symptoms of PPE following the topical treatment ([4]; 10 patients on 5FU+LV (Mayo or AIO) or capecitabine, 3% cream of example 1, 5 times per day to palms and soles): the symptoms of PPE disappeared
- completion of chemotherapy ([4]; 10 patients on 5FU+LV or capecitabine, 3% cream, 5 times per day to palms and soles): completed without any dose reduction or delay in the treatment due to PPE
- appearance of PPE ([4]; topical application to cancer patients being treated with chemotherapy (summary statement)): completely avoided the appearance of PPE
- NR: no response, % [5, 7]: 50%
- PR: Partial remission, % [5, 7]: 50%
- TR: total response, % [5, 7]: 50%
- patients that had developed PPE in whom chemotherapy was completed as planned [5, 8]: 86%
- toxic effects associated to the topical treatment [5, 8]: No toxics effects
- CR: complete remission, % [5, 9]: 80%
- NR: no response, % [5, 9]: 0%
- PR: Partial remission, % [5, 9]: 20%
- TR: total response, % [5, 9]: 100%
- CR: complete remission, % [5, 10]: 62.5%^
- NR: no response, % [5, 10]: 12.5%
- PR: Partial remission, % [5, 10]: 25%
- TR: total response, % [5, 10]: 87%
- quality of life ([5]; PPE patients treated with the 3% cream): significantly improved
- CR: complete remission, % [5, 11]: 66%
- NR: no response, % [5, 11]: 13.3%^
- PR: Partial remission, % [5, 11]: 20%
- TR: total response, % ([5]; all 15 PPE patients, 3% cream 4-5 times a day to hands and feet): 86%
- TR: total response, % ([5]; all 15 PPE patients, 3% cream 4-5 times a day to hands and feet, listed as allopiirinol): 86.6%^
- CR: complete remission, % [5, 12]: 66.6%^
- PR: Partial remission, % [5, 12]: 20.0%^
- inhibition of uridine phosphorylase (uridine phosphorylase): not uridine phosphorylase
